Measurements reported in patent publication US10807994B2, “Heterocyclic compounds and uses thereof” (NUVATION BIO INC., priority 2017, dated 2020).
Read-outs that look alike come from different tables or passages of the source.

Key:
WEE1 kinase enzyme = WEE1 kinase enzyme (Homo sapiens (Human), UniProt P30291); assay: WEE1 IC50 determination, LanthaScreen Terbium labeled TR-FRET kinase assay; type: biochemical; settings: WEE1 enzyme 1 nM
Protocol: IC50 values of compounds against WEE1 kinase enzyme were determined by LanthaScreen™ Terbium Labeled TR-FRET assay. Kinase assays were performed in 1× kinase buffer (# PV6135, Invitrogen, Life Technologies Grand Island, N.Y.) where total reaction volume was 10 μl in low-volume 384-well plates (#4511, Corning). Serially diluted compounds (3-fold) were incubated with WEE1 Enzyme (1 nM) (# PR7373A, Invitrogen, Life Technologies Grand Island, N.Y.) for 10 min, following which a mixture of ATP […] (# A1852, Sigma, St-Louis, Mo.) and fluorescent-PolyGT substrate (200 nM) (# PV3610, Invitrogen, Life Technologies Grand Island, N.Y.) was added and incubated in dark at room temperature for 1 h. After 1 h, 10 μl stop solution containing Terbium labeled antibody (4 nM) (# PV3529, Invitrogen, Life Technologies Grand Island, N.Y.) and EDTA (# E5134, Sigma, St-Louis, Mo.) (20 mM) in TR-FRET dilution buffer (# PV3574, Invitrogen, Life Technologies Grand Island, N.Y.) was added. Readings were taken in a Synergy Neo Plate reader (BioTek, Winooski) at single excitation of 340 nm and Dual emission at 495 nm and 520 nm respectively.
The % activity of test samples was calculated as (Sample−Min)*100/(Max−Min). [Max: DMSO control, complete reaction with enzyme & DMSO and Min: No enzyme & DMSO]. Percent inhibition (100-% activity) was fitted to the “four-parameter logistic model” in XLfit for determination of IC50 values.

A549 cells = assay: Cytotoxicity assay (resazurin), A549 cells, 96 hr; type: cell-based; settings: read-out: Cell Viability A549 IC50
Protocol: (§1) A549 (CCL-185; ATCC) and A427 (HTB-53; ATCC), both lung epithelial cell lines were seeded in their respective medium (DMEM/MEM, 10569044/41090101; Gibco) at a cell count of 1500 cells per 100 μL per well in a 96 well edge plate (167425; ThermoFisher). Cells were allowed to grow at 37° C. for 24 hr in 5% CO2 environment (culture conditions) in a Nuaire incubator (humidified). Serially diluted test compounds (100 μL) within the desired testing concentration ranges were added to the culture plate were further incubated in culture conditions for 72 hr and 96 hr for A427 and A549 respectively. The experiment was terminated at the designated incubation time by replacing the medium with 100 μL of 1 mM of resazurin (R7017; Sigma) prepared in respective culture medium, and the plates were further incubated in culture conditions for 4-6 hr. Fluorescence was recorded using a multimodal plate reader (Biotek Synergy Neo) at an excitation wavelength of 535 nm and emission wavelength of 590 nm to obtain relative fluorescence units. Data analysis was done by subtracting the background fluorescence (only medium blank) value from each reading and then normalizing with the vehicle control (DMSO treated cells) to obtain percent survival/proliferation. Percent survival was then subtracted by 100 to get the percent inhibition of proliferation which was used to calculate IC50 values. Potency of compounds in other cell lines (As-Pc-1, Panc-10.05, MDAMB231, A172) was determined in an analogous manner.

A427 cells = assay: Cytotoxicity assay (resazurin), A427 cells, 72 hr; type: cell-based; settings: Homo sapiens, A-427, read-out: Cell Viability A427 IC50
Protocol: as §1

WEE1 kinase enzyme, sequence (P30291 whole entry): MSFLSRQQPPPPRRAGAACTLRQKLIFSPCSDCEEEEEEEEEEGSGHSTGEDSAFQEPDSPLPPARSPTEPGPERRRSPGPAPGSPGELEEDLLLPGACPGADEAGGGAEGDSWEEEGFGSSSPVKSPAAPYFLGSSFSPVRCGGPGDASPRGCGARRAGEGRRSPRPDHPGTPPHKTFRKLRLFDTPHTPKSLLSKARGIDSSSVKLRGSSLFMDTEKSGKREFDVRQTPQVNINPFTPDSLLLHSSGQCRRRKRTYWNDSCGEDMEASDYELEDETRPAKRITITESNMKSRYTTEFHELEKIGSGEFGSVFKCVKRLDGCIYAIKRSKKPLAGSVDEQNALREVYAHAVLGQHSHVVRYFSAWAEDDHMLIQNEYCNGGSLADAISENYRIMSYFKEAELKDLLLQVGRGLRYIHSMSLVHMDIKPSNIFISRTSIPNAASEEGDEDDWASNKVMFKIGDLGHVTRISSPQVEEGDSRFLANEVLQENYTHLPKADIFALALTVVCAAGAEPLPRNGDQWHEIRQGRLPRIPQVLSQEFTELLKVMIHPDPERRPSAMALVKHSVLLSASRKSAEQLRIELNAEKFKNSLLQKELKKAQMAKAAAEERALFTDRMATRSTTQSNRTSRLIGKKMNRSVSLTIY

Compound	IC50 (WEE1 kinase enzyme) [nM]	IC50 (A549 cells; Homo sapiens) [nM]	IC50 (A549 cells) [nM]	IC50 (A427 cells) [nM]
CN1Cc2cc(Nc3ncc4c(n3)OCN(c3c(Cl)cccc3Cl)C4=O)ccc2C(C)(C)C1 [Example 1.4]	9	5740	–	–
O=C1c2cnc(Nc3ccc(N4CCNCC4)c(F)c3)nc2OCN1c1c(Cl)cccc1Cl [Example 1.29]	212	8880	–	–
O=C1c2cnc(Nc3ccc(N4CCNC[C@@H]4CO)cc3)nc2OCN1c1c(Cl)cccc1Cl [Example 1.37, (R)-3-(2,6-dichlorophenyl)-7-(4-(2-(hydroxymethyl)piperazin-1-yl)phenylamino)-2H-pyrimido[5,4-e][1,3]oxazin-4(3H)-one]	113	9820	–	–
O=C1c2cnc(Nc3ccc(N4CCNC[C@H]4CO)cc3)nc2OCN1c1c(Cl)cccc1Cl [Example 1.38, (S)-3-(2,6-dichlorophenyl)-7-(4-(2-(hydroxymethyl)piperazin-1-yl)phenylamino)-2H-pyrimido[5,4-e][1,3]oxazin-4(3H)-one]	176	9150	–	–
O=C1c2cnc(Nc3ccc(N4CCNCC4)cc3)nc2OCN1c1c(F)cccc1F [Example 1.39, 3-(2,6-difluorophenyl)-7-(4-(piperazin-1-yl)phenylamino)-2H-pyrimido[5,4-e][1,3]oxazin-4(3H)-one]	540	10400	–	–
O=C1c2cnc(Nc3ccc4c(c3)CCNC4)nc2OCN1c1c(Cl)cccc1Cl [Example 1.44, 3-(2,6-dichlorophenyl)-7-(1,2,3,4-tetrahydroisoquinolin-6-ylamino)-2H-pyrimido[5,4-e][1,3]oxazin-4(3H)-one]	23	5790	–	–
COc1cc(Nc2ncc3c(n2)SCN(c2c(Cl)cccc2Cl)C3=O)ccc1N1CCC(N(C)C)CC1 [Example 1.242]	331	–	–	1620
CC1CNCCN1c1ccc(Nc2ncc3c(n2)SCN(c2c(Cl)cccc2Cl)C3=O)cc1Cl (centres unmarked) [Example 1.243]	948	–	–	625
CC1CN(c2ccc(Nc3ncc4c(n3)SCN(c3c(Cl)cccc3Cl)C4=O)cc2Cl)CCN1 (centres unmarked) [Example 1.244]	351	–	–	510
CN(C)C1CCN(c2ccc(Nc3ncc4c(n3)SCN(c3c(F)cccc3Cl)C4=O)cc2Cl)CC1 [Example 1.245]	297	–	–	1140
CC1(C)NCCc2cc(Nc3ncc4c(n3)SCN(c3c(Cl)cccc3Cl)C4=O)ccc21 [Example 1.246]	61	–	–	2440

Continued, in another order:

IC50 (WEE1 kinase enzyme) [nM]	Compound	IC50 (A549 cells; Homo sapiens) [nM]	IC50 (A549 cells) [nM]	IC50 (A427 cells) [nM]
325	Cc1cccc(Cl)c1N1COc2nc(Nc3ccc(N4CCNCC4)cc3)ncc2C1=O [Example 1.30, 3-(2-chloro-6-methylphenyl)-7-((4-(piperazin-1-yl)phenyl)amino)-2,3-dihydro-4H-pyrimido[5,4-e][1,3]oxazin-4-one]	8650	–	–
366	CN1CCN(c2ccc(Nc3cc4c(cn3)C(=O)N(c3c(Cl)cccc3Cl)CO4)cc2)CC1 [Example 1.32, 3-(2,6-dichlorophenyl)-7-(4-(4-methylpiperazin-1-yl)phenylamino)-2H-pyrido[3,4-e][1,3]oxazin-4(3H)-one]	–	7430	–
35	CN1CCc2ccc(Nc3ncc4c(n3)OCN(c3c(Cl)cccc3Cl)C4=O)cc2C1 [Example 1.35, 3-(2,6-dichlorophenyl)-7-(2-methyl-1,2,3,4-tetrahydroisoquinolin-7-ylamino)-2H-pyrimido[5,4-e][1,3]oxazin-4(3H)-one]	11100	–	–
791	O=C1CNCCN1c1ccc(Nc2ncc3c(n2)OCN(c2c(Cl)cccc2Cl)C3=O)cc1 [Example 1.41, 3-(2,6-dichlorophenyl)-7-((4-(2-oxopiperazin-1-yl)phenyl)amino)-2,3-dihydro-4H-pyrimido[5,4-e][1,3]oxazin-4-one]	> 30000	–	–
479	CN1CCN(c2ccc(Nc3ncc4c(n3)OCN(c3c(Cl)cncc3Cl)C4=O)cc2)CC1 [Example 1.43, 3-(3,5-dichloropyridin-4-yl)-7-(4-(4-methylpiperazin-1-yl)phenylamino)-2H-pyrimido[5,4-e][1,3]oxazin-4(3H)-one]	22100	–	–
